# Results from patent US6455535B1, “Substituted aminoquinazolinone (thione) derivatives or salts thereof, intermediates thereof, and pest controllers and a method for using the same” (Nihon Nohyaku Co., Ltd., priority 1999, dated 2002).
# What was measured:
# [1] = system: greenhouse whitefly (Trialeurodes vaporariorum); assay: Insecticidal test on greenhouse whitefly, tomato leaf spray (Test Example 3); assay type: in vivo; details: 100 ppm test liquid sprayed on tomato leaf, 20 adults inoculated; for mortality at 100 ppm: Trialeurodes vaporariorum, read-out: insecticidal effect rating (mortality of adults)
# Description: Insecticidal Test on Greenhouse Whitefly (Trialeurodes vaporariorum)
# Each compounds of the present invention listed in Table 3 and Table 4 was dispersed in and diluted with water to prepare a test liquid containing 100 ppm of the test compound. By use of a spraygun, the test liquid was sprayed on the surface of a leaf of tomato plant put in a 20 ml-vial bottle containing water on a turn table. After air-dried, the leaf treated with the test liquid was put in a glass cylinder, and inoculated with 20 adults of greenhouse whitefly thereon. After the inoculation, the leaf was placed in a greenhouse, and the number of adults of greenhouse whitefly was counted. The mortality of the adults was calculated similar to that of conducted in Test Example 2, and the insecticidal effect of each one of the test compounds was evaluated by the method identical to Test Example 1.
# [2] = system: brown rice planthopper (Nilaparvata lugens); assay: whole plant or invertebrate; assay type: in vivo; details: 192 h, rice seedlings immersed 30 seconds, 10 third-instar nymphs, eight days after inoculation, read-out: insecticidal effect rating (corrected larval mortality)
# Description: Insecticidal Effect on Brown Rice Planthopper (Nilaparvata lugens)
# Each substituted aminoquinazolinone (thione) derivative of the general formula (I) or salt thereof of the present invention listed in Tables 3 and 4 was dispersed in and diluted with water to obtain a 500 ppm liquid chemical. Rice seedlings (cultivar: Nihonbare) were immersed in the liquid chemical for 30 seconds and air-dried, after which each seedling was placed in a glass test tube and inoculated with 10 third-instar nymphs of brown rice planthopper, and the test tube was pluged with a cotton plug. Eight days after the inoculation, the dead and alive were counted. The mortality was calculated by the following equation and the control effect was judged according to the criterion described below.
# Corrected larval mortality (%)={(Ca/c−Ta/T)/Ca/c}×100
# Ta: number of alive nymphs in treated groups
# T: number of inoculated nymphs in treated groups
# Ca: number of alive numphs in untreated groups
# c: number of inoculated nymphs in untreated groups
# Criterion: the same as in Test Example 1.
Compound,insecticidal effect rating (mortality of adults) [1],mortality at 500 ppm [2] [%],mortality at 100 ppm [1] [%]
O=C1Nc2ccc(-c3ccccc3)cc2CN1N=Cc1cccnc1 [compound 86],D or higher,–,–
O=C1Nc2ccc(-c3ccc(Cl)cc3)cc2CN1N=Cc1cccnc1 [compound 90],D or higher,–,–
O=C1Nc2ccc(C(F)(F)F)cc2CN1N=Cc1cccnc1 [compound 14],D or higher,–,–
"O=C1Nc2ccc(OC(F)(F)F)cc2CN1NCc1cccnc1 [Compound No. 208, 3-(3-pyridylmethylamino)-3,4-dihydro-6-trifluoromethoxy-2(1H)-quinazolinone]",–,100,100
"O=C1Nc2ccc(OC(F)(F)F)cc2CN1/N=C/c1cccnc1 [Compound No. 30, 3-(3-pyridylmethylideneamino)-3,4-dihydro-6-trifluoromethoxy-2(1H)-quinazolinone]",–,100,100
O=C1Nc2ccc(I)cc2CN1N=Cc1cccnc1 [compound 10],D or higher,–,–
O=C1Nc2ccc(OC(F)F)cc2CN1N=Cc1cccnc1 [compound 38],D or higher,–,–
CCOC(=O)c1ccc2c(c1)CN(N=Cc1cccnc1)C(=O)N2 [compound 78],D or higher,–,–
